Measurements as given in the kinase profiling compilation of Christmann-Franck et al. (2016).

Tests used:
Assay in all cases: KINOMEscan competition binding
Settings in all cases: compound 1.0 µM
[1] = target: MKNK2 (human) (UniProt Q9HBH9)
[2] = target: WEE1 (human) (UniProt P30291)
[3] = target: STK17B (human) (UniProt O94768)
[4] = target: WEE2 (human) (UniProt P0C1S8)
[5] = system: EGFR (human), P00533 [G719C]
[6] = target: CSNK2A1 (human) (UniProt P68400)
[7] = system: PIK3CA (human), P42336 [I800L]
Sequence of PIK3CA (human), P42336 [I800L] (P42336 whole entry I800L, looked up): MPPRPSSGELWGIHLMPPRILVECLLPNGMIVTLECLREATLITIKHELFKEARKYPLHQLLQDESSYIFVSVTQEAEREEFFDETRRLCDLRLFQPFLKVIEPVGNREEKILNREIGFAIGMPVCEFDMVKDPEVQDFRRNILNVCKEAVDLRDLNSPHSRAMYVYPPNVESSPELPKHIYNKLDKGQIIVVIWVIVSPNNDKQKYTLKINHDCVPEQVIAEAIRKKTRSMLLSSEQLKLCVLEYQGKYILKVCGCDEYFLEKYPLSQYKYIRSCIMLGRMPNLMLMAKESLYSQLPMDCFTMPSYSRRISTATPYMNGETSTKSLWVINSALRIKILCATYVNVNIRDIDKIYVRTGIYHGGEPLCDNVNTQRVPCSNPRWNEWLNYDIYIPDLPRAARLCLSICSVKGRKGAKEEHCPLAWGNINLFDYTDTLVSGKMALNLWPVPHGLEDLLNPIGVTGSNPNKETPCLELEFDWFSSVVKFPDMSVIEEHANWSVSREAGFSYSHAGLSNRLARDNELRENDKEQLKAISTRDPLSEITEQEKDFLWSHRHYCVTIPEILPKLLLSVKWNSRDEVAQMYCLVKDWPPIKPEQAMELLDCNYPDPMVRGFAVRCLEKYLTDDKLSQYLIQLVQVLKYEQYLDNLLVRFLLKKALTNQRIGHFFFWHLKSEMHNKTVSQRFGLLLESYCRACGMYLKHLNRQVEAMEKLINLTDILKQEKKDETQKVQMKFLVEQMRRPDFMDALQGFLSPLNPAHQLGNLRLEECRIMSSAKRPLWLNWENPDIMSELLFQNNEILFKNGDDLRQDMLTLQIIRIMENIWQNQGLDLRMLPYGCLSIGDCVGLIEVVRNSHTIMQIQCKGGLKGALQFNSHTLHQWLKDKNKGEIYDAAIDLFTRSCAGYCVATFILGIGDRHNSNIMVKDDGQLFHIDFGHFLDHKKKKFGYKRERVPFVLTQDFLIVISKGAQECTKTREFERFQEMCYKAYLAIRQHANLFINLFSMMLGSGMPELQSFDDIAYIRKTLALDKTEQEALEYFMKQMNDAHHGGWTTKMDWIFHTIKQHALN

[8] = target: CLK1 (human) (UniProt P49759)
[9] = system: ABL1 (human), P00519 [M351T]
[10] = target: ROS1 (human) (UniProt P08922)
[11] = target: BRSK2 (human) (UniProt Q8IWQ3)
[12] = target: FER (human) (UniProt P16591)
[13] = target: PIK3CA (human) (UniProt P42336)
Sequence of PIK3CA (human) (P42336 whole entry, looked up): as the sequence (P42336 whole entry I800L, looked up) above, with L800I counted along it

[14] = target: OXSR1 (human) (UniProt O95747)
[15] = target: TSSK1B (human) (UniProt Q9BXA7)
[16] = target: MAP3K11 (human) (UniProt Q16584)
[17] = target: BRSK1 (human) (UniProt Q8TDC3)
[18] = system: KIT (human), P10721 [V559D/V654A]
[19] = target: CDK16 (human) (UniProt Q00536)
Sequence of CDK16 (human) (Q00536 whole entry, looked up): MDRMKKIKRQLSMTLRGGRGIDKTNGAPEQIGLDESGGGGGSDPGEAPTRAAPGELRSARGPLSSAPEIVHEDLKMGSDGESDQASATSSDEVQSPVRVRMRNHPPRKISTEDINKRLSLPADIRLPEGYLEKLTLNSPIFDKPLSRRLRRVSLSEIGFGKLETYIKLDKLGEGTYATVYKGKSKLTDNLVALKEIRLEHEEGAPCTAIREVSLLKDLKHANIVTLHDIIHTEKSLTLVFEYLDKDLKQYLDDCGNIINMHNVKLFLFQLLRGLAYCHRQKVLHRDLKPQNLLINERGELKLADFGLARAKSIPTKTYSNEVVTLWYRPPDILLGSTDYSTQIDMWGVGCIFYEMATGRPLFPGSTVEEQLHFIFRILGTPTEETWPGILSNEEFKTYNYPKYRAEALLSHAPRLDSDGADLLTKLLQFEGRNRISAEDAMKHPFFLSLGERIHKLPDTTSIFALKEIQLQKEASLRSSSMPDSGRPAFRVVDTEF

[20] = system: KIT (human), P10721 [V559D/T670I]
[21] = target: STK32A (human) (UniProt Q8WU08)
[22] = target: BMPR1A (human) (UniProt P36894)
[23] = target: CDK8 (human) (UniProt P49336)
[24] = target: IRAK1 (human) (UniProt P51617)
Sequence of IRAK1 (human) (P51617 whole entry, looked up): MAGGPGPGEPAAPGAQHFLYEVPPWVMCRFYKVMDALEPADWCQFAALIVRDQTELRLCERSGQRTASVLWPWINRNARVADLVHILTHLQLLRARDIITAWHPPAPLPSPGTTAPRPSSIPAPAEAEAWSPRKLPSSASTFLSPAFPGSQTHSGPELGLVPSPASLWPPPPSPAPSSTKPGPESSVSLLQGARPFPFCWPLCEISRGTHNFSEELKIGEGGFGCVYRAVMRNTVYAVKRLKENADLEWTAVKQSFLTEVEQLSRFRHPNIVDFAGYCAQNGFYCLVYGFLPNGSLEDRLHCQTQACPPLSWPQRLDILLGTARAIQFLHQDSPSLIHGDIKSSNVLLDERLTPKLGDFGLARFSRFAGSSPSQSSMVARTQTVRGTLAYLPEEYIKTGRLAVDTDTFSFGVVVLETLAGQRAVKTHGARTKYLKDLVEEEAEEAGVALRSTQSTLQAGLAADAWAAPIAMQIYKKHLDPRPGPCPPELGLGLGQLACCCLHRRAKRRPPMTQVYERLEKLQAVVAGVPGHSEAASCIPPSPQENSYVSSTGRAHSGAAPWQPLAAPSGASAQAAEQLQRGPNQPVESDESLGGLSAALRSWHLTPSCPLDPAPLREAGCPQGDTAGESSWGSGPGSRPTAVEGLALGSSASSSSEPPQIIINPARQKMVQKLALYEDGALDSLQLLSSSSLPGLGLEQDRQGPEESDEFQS

[25] = target: SRMS (human) (UniProt Q9H3Y6)
[26] = target: MAP2K7 (human) (UniProt O14733)
[27] = target: CLK4 (human) (UniProt Q9HAZ1)
[28] = target: FGFR1 (human) (UniProt P11362)
[29] = target: CDC42BPB (human) (UniProt Q9Y5S2)
[30] = target: AURKA (human) (UniProt O14965)
[31] = target: MAP3K3 (human) (UniProt Q99759)
[32] = target: RIPK4 (human) (UniProt P57078)
Sequence of RIPK4 (human) (P57078 whole entry, looked up): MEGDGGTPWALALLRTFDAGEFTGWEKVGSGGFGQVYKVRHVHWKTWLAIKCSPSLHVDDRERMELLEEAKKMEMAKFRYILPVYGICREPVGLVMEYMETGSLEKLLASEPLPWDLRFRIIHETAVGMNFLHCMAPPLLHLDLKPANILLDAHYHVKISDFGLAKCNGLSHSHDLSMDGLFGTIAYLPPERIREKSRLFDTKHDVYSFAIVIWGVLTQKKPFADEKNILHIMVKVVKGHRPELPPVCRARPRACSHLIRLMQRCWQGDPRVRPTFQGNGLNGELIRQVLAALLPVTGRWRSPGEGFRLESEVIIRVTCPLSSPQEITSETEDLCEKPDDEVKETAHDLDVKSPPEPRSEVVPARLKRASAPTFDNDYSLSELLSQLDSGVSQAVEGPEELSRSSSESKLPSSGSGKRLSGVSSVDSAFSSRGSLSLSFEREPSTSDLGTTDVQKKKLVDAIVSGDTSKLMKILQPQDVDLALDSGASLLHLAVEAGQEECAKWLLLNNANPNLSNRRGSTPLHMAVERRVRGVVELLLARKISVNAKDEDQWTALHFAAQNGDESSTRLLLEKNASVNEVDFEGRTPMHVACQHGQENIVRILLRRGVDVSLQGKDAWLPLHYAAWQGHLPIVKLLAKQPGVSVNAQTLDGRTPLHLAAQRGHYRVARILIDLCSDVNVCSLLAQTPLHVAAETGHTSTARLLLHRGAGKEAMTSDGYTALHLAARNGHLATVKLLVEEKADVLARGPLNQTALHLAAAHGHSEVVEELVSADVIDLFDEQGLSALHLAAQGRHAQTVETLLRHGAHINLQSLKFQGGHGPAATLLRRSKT

[33] = target: PIK3CG (human) (UniProt P48736)
Sequence of PIK3CG (human) (P48736 whole entry, looked up): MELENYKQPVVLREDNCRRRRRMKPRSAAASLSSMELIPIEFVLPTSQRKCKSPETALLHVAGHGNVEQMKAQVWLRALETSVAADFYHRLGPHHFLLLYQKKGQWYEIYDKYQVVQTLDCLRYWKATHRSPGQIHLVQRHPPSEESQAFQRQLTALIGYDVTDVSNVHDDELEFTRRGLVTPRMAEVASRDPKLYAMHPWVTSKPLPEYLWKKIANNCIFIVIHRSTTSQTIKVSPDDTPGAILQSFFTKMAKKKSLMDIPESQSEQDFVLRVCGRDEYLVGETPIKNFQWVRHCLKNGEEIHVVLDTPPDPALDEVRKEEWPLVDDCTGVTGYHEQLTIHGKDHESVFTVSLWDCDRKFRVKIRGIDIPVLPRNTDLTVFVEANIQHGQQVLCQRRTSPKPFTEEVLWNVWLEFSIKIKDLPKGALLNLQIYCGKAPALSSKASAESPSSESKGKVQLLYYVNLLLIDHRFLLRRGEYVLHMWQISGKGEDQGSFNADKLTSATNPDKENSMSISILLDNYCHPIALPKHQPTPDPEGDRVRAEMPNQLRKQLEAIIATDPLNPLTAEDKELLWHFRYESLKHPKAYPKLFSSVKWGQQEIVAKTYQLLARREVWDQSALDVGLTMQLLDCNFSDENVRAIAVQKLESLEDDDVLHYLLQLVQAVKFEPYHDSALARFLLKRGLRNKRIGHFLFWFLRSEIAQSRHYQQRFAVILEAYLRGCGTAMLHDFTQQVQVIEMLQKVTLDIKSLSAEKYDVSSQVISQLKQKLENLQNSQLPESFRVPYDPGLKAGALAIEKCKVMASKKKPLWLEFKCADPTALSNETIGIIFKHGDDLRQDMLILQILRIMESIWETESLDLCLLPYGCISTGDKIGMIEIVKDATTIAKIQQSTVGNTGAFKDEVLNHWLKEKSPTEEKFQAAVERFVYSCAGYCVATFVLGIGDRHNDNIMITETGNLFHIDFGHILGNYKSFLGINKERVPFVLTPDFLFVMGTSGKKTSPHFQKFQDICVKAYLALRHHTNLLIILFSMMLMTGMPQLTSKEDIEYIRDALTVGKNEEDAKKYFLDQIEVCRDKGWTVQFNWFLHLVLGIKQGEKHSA

[34] = system: KIT (human), P10721 [D816V]
[35] = target: DAPK2 (human) (UniProt Q9UIK4)
[36] = target: DDR2 (human) (UniProt Q16832)
[37] = target: TXK (human) (UniProt P42681)
Sequence of TXK (human) (P42681 whole entry, looked up): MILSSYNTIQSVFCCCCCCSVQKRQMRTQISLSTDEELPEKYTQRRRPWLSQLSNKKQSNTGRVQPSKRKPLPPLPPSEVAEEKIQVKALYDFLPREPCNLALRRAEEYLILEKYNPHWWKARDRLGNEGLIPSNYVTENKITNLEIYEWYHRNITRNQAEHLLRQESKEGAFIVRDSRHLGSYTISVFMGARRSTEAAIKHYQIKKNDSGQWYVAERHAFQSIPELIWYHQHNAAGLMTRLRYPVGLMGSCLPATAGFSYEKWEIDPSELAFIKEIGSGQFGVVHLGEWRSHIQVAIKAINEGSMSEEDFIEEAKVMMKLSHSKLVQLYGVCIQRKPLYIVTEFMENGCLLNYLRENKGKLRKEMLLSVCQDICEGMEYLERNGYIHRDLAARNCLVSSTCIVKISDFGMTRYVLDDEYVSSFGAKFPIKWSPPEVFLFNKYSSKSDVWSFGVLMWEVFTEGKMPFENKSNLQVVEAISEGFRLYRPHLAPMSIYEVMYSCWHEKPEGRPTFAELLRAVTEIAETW

[38] = target: LATS2 (human) (UniProt Q9NRM7)
[39] = target: MARK1 (human) (UniProt Q9P0L2)

CNc1nc(Nc2ccc(C(=O)N3CCOCC3)cc2OC)ncc1Cl
kinase still bound, per cent of control [1]: 14%
kinase still bound, per cent of control [2]: 78%
kinase still bound, per cent of control [3]: 14%
kinase still bound, per cent of control [4]: 95%
kinase still bound, per cent of control [5]: 100%
kinase still bound, per cent of control [6]: 76%
kinase still bound, per cent of control [7]: 96%
kinase still bound, per cent of control [8]: 100%
kinase still bound, per cent of control [9]: 97%
kinase still bound, per cent of control [10]: 100%
kinase still bound, per cent of control [11]: 51%
kinase still bound, per cent of control [12]: 100%
kinase still bound, per cent of control [13]: 100%
kinase still bound, per cent of control [14]: 100%
kinase still bound, per cent of control [15]: 100%
kinase still bound, per cent of control [16]: 100%
kinase still bound, per cent of control [17]: 96%
kinase still bound, per cent of control [18]: 100%
residual activity [19]: 100%
kinase still bound, per cent of control [20]: 100%
kinase still bound, per cent of control [21]: 100%
kinase still bound, per cent of control [22]: 100%
residual activity [23]: 100%
kinase still bound, per cent of control [24]: 100%
kinase still bound, per cent of control [25]: 100%
kinase still bound, per cent of control [26]: 100%
kinase still bound, per cent of control [27]: 100%
kinase still bound, per cent of control [28]: 55%
kinase still bound, per cent of control [29]: 100%
kinase still bound, per cent of control [30]: 96%
kinase still bound, per cent of control [31]: 56%
kinase still bound, per cent of control [32]: 100%
kinase still bound, per cent of control [33]: 78%
kinase still bound, per cent of control [34]: 98%
kinase still bound, per cent of control [35]: 66%
kinase still bound, per cent of control [36]: 100%
kinase still bound, per cent of control [37]: 100%
kinase still bound, per cent of control [38]: 100%
kinase still bound, per cent of control [39]: 45%
